# “Also recorded” adds a separate entry of the source. Where two headings read alike, the source gives them in different places. Where a SMILES comes first, the peptide text is derived from it. Where no end group is shown, it is not given here.
# How the values were obtained:
# [1] = target: T1, Angiotensin I-converting enzyme (ACE) (Homo sapiens, UniProt P12821); parameters: purchased Dojindo (Kumamoto, Japan); conditions: cited from earlier work
# Description: Table 1 IC50 values of ACE inhibitory peptides derived from Paralichthys olivaceus surimi. | column: IC50 Value (µM) || Several studies have investigated the relationship between protein intake and blood pressure. […] Our previous study confirmed that surimi manufactured from olive flounder could be used as a beneficial ingredient in dietary protein due to its antihypertensive effect. The study also identified novel peptides derived from surimi. ACE inhibition plays a major physiological role in regulating blood pressure. The current study investigated the ACE inhibition activity of the novel peptides ...
# Target sequence in this assay (P12821 30-1306, species assumed): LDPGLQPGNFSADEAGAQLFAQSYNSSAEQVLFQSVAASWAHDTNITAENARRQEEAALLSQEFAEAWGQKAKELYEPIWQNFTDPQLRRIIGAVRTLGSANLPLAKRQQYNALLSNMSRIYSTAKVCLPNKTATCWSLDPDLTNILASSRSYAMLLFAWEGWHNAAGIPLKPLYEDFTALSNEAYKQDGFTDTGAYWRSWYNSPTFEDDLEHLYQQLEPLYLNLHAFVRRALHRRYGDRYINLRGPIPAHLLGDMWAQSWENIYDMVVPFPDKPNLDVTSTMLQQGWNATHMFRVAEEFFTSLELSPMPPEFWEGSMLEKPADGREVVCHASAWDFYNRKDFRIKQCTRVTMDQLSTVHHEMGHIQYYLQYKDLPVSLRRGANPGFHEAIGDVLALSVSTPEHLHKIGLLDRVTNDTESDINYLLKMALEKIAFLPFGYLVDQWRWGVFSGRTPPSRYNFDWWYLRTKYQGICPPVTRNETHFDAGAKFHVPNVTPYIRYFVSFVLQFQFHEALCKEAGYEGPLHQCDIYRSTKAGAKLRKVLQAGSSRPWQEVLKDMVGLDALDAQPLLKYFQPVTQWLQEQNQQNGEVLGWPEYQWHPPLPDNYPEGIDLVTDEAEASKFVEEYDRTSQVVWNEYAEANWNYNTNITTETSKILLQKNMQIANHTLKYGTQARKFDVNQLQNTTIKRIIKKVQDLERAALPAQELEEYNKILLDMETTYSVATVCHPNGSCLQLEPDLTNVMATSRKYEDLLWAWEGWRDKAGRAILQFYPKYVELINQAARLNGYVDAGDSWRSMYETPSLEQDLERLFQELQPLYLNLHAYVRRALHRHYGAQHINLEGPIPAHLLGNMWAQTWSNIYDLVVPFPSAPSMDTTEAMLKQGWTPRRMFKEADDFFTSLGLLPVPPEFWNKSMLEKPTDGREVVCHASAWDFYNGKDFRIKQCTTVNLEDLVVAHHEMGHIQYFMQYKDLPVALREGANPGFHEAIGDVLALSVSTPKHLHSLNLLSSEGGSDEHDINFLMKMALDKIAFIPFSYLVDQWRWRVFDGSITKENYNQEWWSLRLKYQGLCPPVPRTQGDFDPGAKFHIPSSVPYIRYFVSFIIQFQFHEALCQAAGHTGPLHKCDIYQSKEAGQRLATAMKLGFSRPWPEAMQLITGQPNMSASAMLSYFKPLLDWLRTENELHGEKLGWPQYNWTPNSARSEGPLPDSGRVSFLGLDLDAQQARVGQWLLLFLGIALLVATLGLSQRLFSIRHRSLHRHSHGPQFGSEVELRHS
# [2] = test system: spontaneously hypertensive rats (SHRs); assay: Systolic blood pressure after oral administration in SHRs (tail-cuff); type: in vivo; conditions: for systolic blood pressure (SBP): 3 h after oral administration, 50 mg/kg in 1 mL saline, 6 SHRs per group, saline group 200–210 mmHg, mean ± SD; for change in blood pressure, overall result (in words): oral administration, 50 mg/kg, SHRs, time not stated
# Method: SHRs with tail SBP over 180 mmHg were obtained from SLC Inc. (Shizuoka, Japan). Seven-week-old male, specific pathogen-free SHRs of approximately 300 g body weight were raised under room temperature (25 °C) with a 12-h light/dark cycle. The rats were fed a normal diet and tap water, with ad libitum feeding. All animals were administrated the dissolved samples in saline solution. The rats were divided into five groups comprised of a control group (saline); a group treated with peptide from sardine (positive control); and groups treated with any of three peptides (IVDR, WYK, and VASVI). Each was orally administered to 6 SHRs at a dose of 50 mg/kg which was dissolved in 1 mL saline. SBP was measured by a tail-cuff method before administration and at 3, 6, and 9 h post-administration using a CODA™ blood pressure monitor (Kent Scientific Corp., Torrington, CT, USA). The animal experiment received approval from the Animal Care and Use Committee of the Jeju National University (Approval NO. 2017-0017) and all experiments were performed in accordance with the guidelines.
# [3] = test system: endothelial nitric oxide synthase (eNOS) in HUVECs; assay: Phosphorylation of eNOS in HUVECs, Western blot; type: cell-based, human; conditions: positive control or overall result, concentration not given
# Method: (§1) HUVECs were seeded on 6-well plates at a concentration of 1 × 10* cells/mL. Sixteen hours after seeding, the cells were pretreated with the peptides for 24 h. The experimental procedure was completed as previously described. The primary antibodies (p-Akt, p-eNOS, and β-actin) were used at 1:1000 dilutions and incubated with the membrane at 4 °C overnight. The secondary antibodies were used at 1:3000 dilutions. All antibodies were purchased from Cell Signaling Technology (Beverly, MA, USA).
# [4] = test system: Akt (protein kinase B) in HUVECs; assay: Phosphorylation of Akt in HUVECs, Western blot; type: cell-based, human; conditions: for phosphorylation level of Akt (in words): 25, 50, and 100 μg/mL, HUVECs pretreated 24 h, triplicate
# Method: as §1
# [5] = test system: human umbilical vein endothelial cells (HUVECs); assay: NO production in HUVECs (Griess reagent); type: cell-based; conditions: 3 h, 540 nm, compared with control
# Method: Cultures of human umbilical vein endothelial cells (HUVEC, ATCC* CRL-1730) were incubated at 37 °C in a cell incubator supplied with 5% CO2. Cell media compositions were based on those used in a previous study. Furthermore, production of NO was analyzed using Griess reagent (1% sulphanilamide and 0.1% naphthylethylenediamine dihydrochloride in 2.5% phosphoric acid), according to the method described by Ko et al.. HUVEC were seeded in 96-well plates at 1 × 10* cells/mL; after pre-incubation (24 h) the cells were treated without or with three concentrations of peptides (25, 50, and 100 μg/mL) for 3 h. Then the cells were treated with Griess reagent and incubated at 37 °C for 10 min in the dark. The […] was quantified using a microplate reader at 540 nm.
# [6] = target: T1, Angiotensin I-converting enzyme (ACE); assay: ACE inhibitory activity assay (Dojindo ACE kit-WST); type: biochemical; parameters: purchased Dojindo (Kumamoto, Japan); conditions: for IC50: mean ± SD of triplicate experiments, read-out: IC50 value of ACE inhibition
# Method: The inhibitory activity of ACE was measured using the Dojindo ACE kit-WST (Kumamoto, Japan) in accordance with the manufacturer’s protocols. The principles of the kit have been described in a previous study.
# The inhibitory ratios were calculated as follows:Inhibition rate (%) = [(Control − Sample)/(Control − Blank)] × 100(1) where IC50 is the concentration of inhibitor required for 50% inhibition of an enzymatic activity.
# Target sequence in this assay (P12821 30-1306, species assumed): as above
# [7] = target: T1, Angiotensin I-converting enzyme (ACE)
# Target sequence in this assay (P12821 30-1256): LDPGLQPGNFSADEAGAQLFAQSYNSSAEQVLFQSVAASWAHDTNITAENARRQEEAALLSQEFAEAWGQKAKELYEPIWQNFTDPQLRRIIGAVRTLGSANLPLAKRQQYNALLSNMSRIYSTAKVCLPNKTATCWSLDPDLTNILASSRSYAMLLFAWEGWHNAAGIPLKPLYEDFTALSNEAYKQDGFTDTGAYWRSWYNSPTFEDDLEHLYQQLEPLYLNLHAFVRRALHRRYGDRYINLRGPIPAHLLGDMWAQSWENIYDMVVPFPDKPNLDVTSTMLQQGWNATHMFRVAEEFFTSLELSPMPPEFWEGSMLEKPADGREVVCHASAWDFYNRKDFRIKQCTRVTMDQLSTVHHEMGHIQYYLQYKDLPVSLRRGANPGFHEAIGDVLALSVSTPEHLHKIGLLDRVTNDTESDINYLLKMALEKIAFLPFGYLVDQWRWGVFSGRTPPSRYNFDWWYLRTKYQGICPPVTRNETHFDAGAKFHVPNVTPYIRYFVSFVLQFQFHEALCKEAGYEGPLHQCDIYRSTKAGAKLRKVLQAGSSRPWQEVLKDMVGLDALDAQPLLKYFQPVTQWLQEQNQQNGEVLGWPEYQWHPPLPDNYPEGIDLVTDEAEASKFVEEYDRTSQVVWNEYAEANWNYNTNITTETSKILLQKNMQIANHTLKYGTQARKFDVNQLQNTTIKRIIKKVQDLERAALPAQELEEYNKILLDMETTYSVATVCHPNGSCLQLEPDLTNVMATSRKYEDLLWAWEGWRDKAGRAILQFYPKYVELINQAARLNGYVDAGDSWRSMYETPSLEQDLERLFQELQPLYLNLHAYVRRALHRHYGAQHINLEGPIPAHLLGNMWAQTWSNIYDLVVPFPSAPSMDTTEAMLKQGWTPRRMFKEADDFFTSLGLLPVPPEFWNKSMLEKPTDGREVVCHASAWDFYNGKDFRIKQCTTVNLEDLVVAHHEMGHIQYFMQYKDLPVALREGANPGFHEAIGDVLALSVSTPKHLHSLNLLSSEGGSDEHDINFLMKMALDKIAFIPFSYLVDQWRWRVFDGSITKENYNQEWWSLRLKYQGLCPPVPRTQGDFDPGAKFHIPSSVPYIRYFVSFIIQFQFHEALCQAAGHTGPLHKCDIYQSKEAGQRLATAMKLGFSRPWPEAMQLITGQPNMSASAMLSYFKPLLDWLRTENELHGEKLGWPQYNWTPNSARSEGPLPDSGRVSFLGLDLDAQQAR
# [8] = literature peptides for comparison, read-out: IC50 of ACE inhibitory peptides isolated from food proteins
# [9] = peptides at 25–100 μg/mL, means ± SD of triplicate
molecule,measurement,setting,value
"Val-Tyr [Sardine peptide (Val-Tyr), reference compound]",IC50,"[1]; determined by Matsufuji et al., read-out: IC50 value of ACE inhibition (sardine peptide)",26 µM
same,systolic blood pressure (SBP),[2],184 ± 2 mmHg
same,"change in blood pressure, overall result (in words)",[2],declined considerably
"[Ca+2] [calcium, reference compound]",phosphorylation of eNOS (in words),[3],profoundly increased
same,phosphorylation of Akt (in words),"[4]; HUVECs, positive control or overall result, concentration not given",profoundly increased
Phe-Gly-Als-Ser-Thr-Arg-Gly-Ala (FGASTRGA; printed 'Als' at position 3 read as a typo for Ala) [from Alaska pollock frame],IC50,[1]; [8],14.7 µM
ALGPQFY [from stone fish],IC50,[1]; [8],12 µM
Arg-Val-Cys-Leu-Pro (RVCLP) [from lizard fish],IC50,[1]; [8],175 µM
Ala-Ser-Leu [from silkworm pupa],IC50,[1]; [8],102 µM
"NCCCC[C@H](NC(=O)[C@H](Cc1ccc(O)cc1)NC(=O)[C@@H](N)Cc1c[nH]c2ccccc12)C(=O)O [WYK, Tryptophan-Tyrosine-Lysine] (H-Trp-Tyr-Lys-OH)",NO production in HUVECs (in words),[5]; [9],significantly higher
same,ACE inhibitory activity (in words),[6],high Angiotensin I-converting Enzyme (ACE) inhibition activity; also recorded: high ACE inhibitory activity
same,IC50,[6],33 ± 0.68 µM
same,systolic blood pressure (SBP),[2],173 ± 4 mmHg
same,"change in blood pressure, overall result (in words)",[2],effective at decreasing SBP in SHRs
same,phosphorylation level of Akt (in words),[4],significantly increased
"VASVI [VASVI, Valine-Alanine-Serine-Valine-Isoleucine]",NO production in HUVECs (in words),[5]; [9],significantly higher
same,ACE inhibitory activity (in words),[6],high Angiotensin I-converting Enzyme (ACE) inhibition activity; also recorded: high ACE inhibitory activity
same,IC50,[6],32.7 ± 1.32 µM
same,systolic blood pressure (SBP),[2],181 ± 2 mmHg
same,"change in blood pressure, overall result (in words)",[2],effective at decreasing SBP in SHRs
same,phosphorylation level of Akt (in words),[4],significantly increased
"CC[C@H](C)[C@H](N)C(=O)N[C@H](C(=O)N[C@@H](CC(=O)O)C(=O)N[C@@H](CCCNC(=N)N)C(=O)O)C(C)C [IVDR, Isoleucine-Valine-Aspartic acid-Arginine] (H-IVDR-OH)",NO production in HUVECs (in words),[5]; 100 μg/mL,increased the production of NO only slightly
same,ACE inhibitory activity (in words),[6],high Angiotensin I-converting Enzyme (ACE) inhibition activity; also recorded: high ACE inhibitory activity
same,IC50,[6],46.9 ± 0.32 µM
same,"change in blood pressure, overall result (in words)",[2],effective at decreasing SBP in SHRs
same,phosphorylation level of Akt (in words),[4],significantly increased
EALVSQLTR [from Trichiurus lepturus myosin],IC50,[1]; [8],91.5 µM
Trp-Tyr-Lys (WYK) (peptide),IC50 of inhibition of ACE enzymatic activity (Dojindo ACE kit-WST),[7],33 µM
ANSEVAQWR [from Trichiurus lepturus myosin],IC50,[1]; [8],89.6 µM
IVDR [Ile-Val-Asp-Arg (IVDR)],IC50 of inhibition of ACE enzymatic activity (Dojindo ACE kit-WST),[7],46.9 µM
VASVI [Val-Ala-Ser-Val-Ile (VASVI)],IC50 of inhibition of ACE enzymatic activity (Dojindo ACE kit-WST),[7],32.7 µM
